Tests used:
[1] = Liver microsomes stability; assay type: in vitro ADME, human; conditions: 1 μM compound, 1 mg/mL human liver microsomes, 1 mM NADPH; for half-life at 1 μM: human, human liver microsomes, read-out: T½ of HLM
Protocol: The compound to be tested with final concentration of 1 μM was incubated with 1 mg/mL of human liver microsomes and 1 mM of NADPH, and a group without NADPH was set as a negative control. The reaction mixture was quenched with methanol at five time points of 0, 5, 15, 30 and 60 min, respectively, then centrifuged at 2500 rpm for 20 min to precipitate proteins, and the resulting supernatant was analyzed by LC-MS/MS. The data was analyzed and the k value and half-life T1/2 was calculated, T1/2(min)=0.693/k.
Wherein, compounds a, b and c are active compounds disclosed in patent No. ZL201610154581.3.

786-0 (renal cancer) = assay: NCI method SRB growth inhibition, 786-0; assay type: cell-based; conditions: Homo sapiens; 786-0, treated 48 hours, SRB stain
Excerpt: (§1) In this embodiment, the method of National Cancer Institute (NCI) was used to evaluate the anti-tumor activity of the embodiment compounds in the present disclosure. Nine representative cell lines were selected for activity evaluation, including A549 (non-small cell lung cancer), HCT116 (colon cancer), SF295 (central nervous system tumor), LOX-IMVI (melanoma), 786-0 (renal cancer), K562 (leukemia), PC-3 (prostate cancer), OVCAR-3 (ovarian cancer) and HS 578T (breast cancer).
(§2) The specific method was as follows: 60 tumor cell lines of 9 kinds of human cancers were used to evaluate the inhibitory activity of the compound in vitro. A test group, a parallel control group and a vehicle control group were set up. The parallel control group was fixed immediately before the compound was added; the cells in the test group were fixed after being treated with the compound for 48 hours; the vehicle control group was fixed after an equal volume of complete medium was added for 48 hours. Sulforhodamine B (SRB) was used to stain, and the OD value was measured at a wavelength of 515 nm. The specific calculation method was as follows: the OD value of the parallel control group was recorded as Tz, the OD value of the vehicle control group was recorded as C, and the OD value of the test group was recorded as (Ti). If Ti≥Tz, it means that the cells still grow after the drug was added, and the growth rate %=[(Ti−Tz)/(C−Tz)]×100; if Ti<Tz, it means that the cells are killed after the drug was added, and the growth rate %=[(Ti−Tz)/Tz]×100. Three parameters were used to evaluate the anti-tumor activity of compounds in this method: 50% growth inhibitory concentration (GI50): i.e. the compound concentration at [(Ti−Tz)/(C−Tz)]×100=50; complete growth inhibitory concentration (TGI): the compound concentration at Ti=Tz; the drug concentration required to kill 50% of the cells (LC50): i.e. the compound concentration at [(Ti−Tz)/Tz]×100=−50.
(§3) The inhibitory activities of the embodiment compounds on nine representative tumor cell lines were listed in detail in Table 1. Wherein, the GI50 value means “50% growth inhibition rate”, that is, the concentration of the compound to be tested when it can inhibit […] of cell growth; “ND” means not detected.

OVCAR-3 (ovarian cancer) = assay: NCI method SRB growth inhibition, OVCAR-3; assay type: cell-based; conditions: Homo sapiens; OVCAR-3, treated 48 hours, SRB stain
Excerpt: as §1, §2, §3

K562 (leukemia) = assay: NCI method SRB growth inhibition, K562; assay type: cell-based; conditions: Homo sapiens; K562, treated 48 hours, SRB stain
Excerpt: as §1, §2, §3

HCT116 (colon cancer) = assay: NCI method SRB growth inhibition, HCT116; assay type: cell-based; conditions: Homo sapiens, HCT-116; HCT116, treated 48 hours, SRB stain
Excerpt: as §1, §2, §3

[2] = tested on: SF295 (central nervous system tumor); assay: NCI method SRB growth inhibition, SF295; assay type: cell-based; conditions: Homo sapiens, SF-295; SF295, treated 48 hours, SRB stain
Excerpt: as §1, §2, §3

LOX-IMVI (melanoma) = assay: NCI method SRB growth inhibition, LOX-IMVI; assay type: cell-based; conditions: Homo sapiens, treated 48 hours, SRB stain
Excerpt: as §1, §2, §3

HS 578T (breast cancer) = assay: NCI method SRB growth inhibition, HS 578T; assay type: cell-based; conditions: Homo sapiens, HS578T, treated 48 hours, SRB stain
Excerpt: as §1, §2, §3

PC-3 (prostate cancer) = assay: NCI method SRB growth inhibition, PC-3; assay type: cell-based; conditions: Homo sapiens; PC-3, treated 48 hours, SRB stain
Excerpt: as §1, §2, §3

[3] = tested on: A549 (non-small cell lung cancer); assay: NCI method SRB growth inhibition, A549; assay type: cell-based; conditions: Homo sapiens; A549, treated 48 hours, SRB stain
Excerpt: as §1, §2, §3

SMILES	microsomal CLint at 1 μM [1]	half-life at 1 μM [1]	GI50 (786-0 (renal cancer))	GI50 (OVCAR-3 (ovarian cancer))	GI50 (K562 (leukemia))	GI50 (HCT116 (colon cancer))	GI50 [2]	GI50 (LOX-IMVI (melanoma))	GI50 (HS 578T (breast cancer))	GI50 (PC-3 (prostate cancer))	GI50 [3]
[2H]C([2H])([2H])Oc1c(OC)cc(C(=O)Nc2cc3c(cc2Oc2cc(C)cc(C)c2)C(=O)N[C@@H](CC(=O)N(CC)CC)C(=O)N3)c(Cl)c1OC [Compound 2, (S)-2-chloro-N-[3-[2-(diethylamino)-2-oxoethyl]-7-(3,5-dimethylphenoxy)-2,5-dioxo-2,3,4,5-tetrahydro-1H-benzo[e][1,4]diazepin-8-yl]-3,5-dimethoxy-4-(trideuteromethoxy)benzamide]	32 µL/min/mg	0.362 h	11.8 nM	6.1 nM	< 5 nM	< 5 nM	7.9 nM	< 5 nM	30.8 nM	5.5 nM	13.1 nM
[2H]C([2H])([2H])c1cc(Oc2cc3c(cc2NC(=O)c2cc(OC)c(OC)c(OC)c2Cl)NC(=O)[C@H](CC(=O)N(CC)CC)NC3=O)cc(C([2H])([2H])[2H])c1 [Compound 23, (S)-2-chloro-N-[3-[2-(diethylamino)-2-oxoethyl]-7-[3,5-bis(trideuteromethyl)phenoxy]-2,5-dioxo-2,3,4,5-tetrahydro-1H-benzo[e][1,4]diazepin-8-yl]-3,4,5-trimethoxybenzamide]	26.9 µL/min/mg	0.43 h	67.5 nM	6.6 nM	< 5 nM	< 5 nM	10.5 nM	< 5 nM	24.9 nM	6.1 nM	11.6 nM
[2H]C([2H])([2H])Oc1cc(C(=O)Nc2cc3c(cc2Oc2cc(C)cc(C)c2)C(=O)N[C@@H](CC(=O)N(C)OC)C(=O)N3)c(Cl)c(OC([2H])([2H])[2H])c1OC([2H])([2H])[2H] [Compound 35]	11.7 µL/min/mg	0.987 h	21.1 nM	< 5 nM	< 5 nM	9.8 nM	29 nM	5.6 nM	16 nM	< 5 nM	< 5 nM
[2H]C([2H])([2H])Oc1cc(C(=O)Nc2cc3c(cc2Oc2cc(C)cc(C)c2)C(=O)N(C)[C@@H](CC(=O)N2CCC(F)(F)CC2)C(=O)N3)c(Cl)c(OC([2H])([2H])[2H])c1OC([2H])([2H])[2H] [Compound 17, (S)-2-chloro-N-[3-[2-(4,4-difluoropiperidin-1-yl)-2-oxoethyl]-7-(3,5-dimethylphenoxy)-4-methyl-2,5-dioxo-2,3,4,5-tetrahydro-1H-benzo[e][1,4]diazepin-8-yl]-3,4,5-tris(trideuteromethoxy)benzamide]	34.5 µL/min/mg	0.335 h	10 nM	8.4 nM	< 5 nM	44.9 nM	8 nM	< 5 nM	5.6 nM	< 5 nM	15.8 nM
[2H]C([2H])([2H])Oc1cc(C(=O)Nc2cc3c(cc2Oc2cc(C)cc(C)c2)C(=O)N[C@@H](CC(=O)N(C)OC([2H])([2H])[2H])C(=O)N3)c(Br)c(OC([2H])([2H])[2H])c1OC([2H])([2H])[2H] [Compound 40]	9 µL/min/mg	1.28 h	< 5 nM	< 5 nM	< 5 nM	< 5 nM	< 5 nM	< 5 nM	< 5 nM	< 5 nM	< 5 nM
[2H]C([2H])([2H])Oc1cc(C(=O)Nc2cc3c(cc2Oc2cc(C)cc(C)c2)C(=O)N[C@@H](CC(=O)N(OC([2H])([2H])[2H])C([2H])([2H])[2H])C(=O)N3)c(Br)c(OC([2H])([2H])[2H])c1OC([2H])([2H])[2H] [Compound 37]	7.7 µL/min/mg	1.5 h	8.6 nM	< 5 nM	< 5 nM	< 5 nM	12 nM	< 5 nM	< 5 nM	< 5 nM	< 5 nM
[2H]C([2H])([2H])Oc1cc(C(=O)Nc2cc3c(cc2Oc2cc(C)cc(C)c2)C(=O)N[C@@H](CC(=O)N2CCN(C)CC2)C(=O)N3)c(Br)c(OC([2H])([2H])[2H])c1OC([2H])([2H])[2H] [Compound 29, (S)-2-bromo-N-[7-(3,5-dimethylphenoxy)-3-[2-(4-methylpiperazin-1-yl)-2-oxoethyl]-2,5-dioxo-2,3,4,5-tetrahydro-1H-benzo[e][1,4]diazepin-8-yl]-3,4,5-tris(trideuteromethoxy)benzamide]	5.4 µL/min/mg	2.13 h	244 nM	< 5 nM	4.2 nM	12 nM	93.8 nM	< 5 nM	< 5 nM	< 5 nM	11.8 nM
[2H]c1c(Oc2cc3c(cc2NC(=O)c2cc(OC)c(OC)c(OC)c2Cl)NC(=O)[C@H](CC(=O)N(CC)CC)NC3=O)c([2H])c(C([2H])([2H])[2H])c([2H])c1C([2H])([2H])[2H] [Compound 25, (S)-2-chloro-N-[3-[2-(diethylamino)-2-oxoethyl]-7-[3,5-bis(trideuteromethyl)-2,4,6-trideuterophenoxy]-2,5-dioxo-2,3,4,5-tetrahydro-1H-benzo[e][1,4]diazepin-8-yl]-3,4,5-trimethoxybenzamide]	29.8 µL/min/mg	0.388 h	15.8 nM	8.3 nM	< 5 nM	< 5 nM	14.2 nM	< 5 nM	30.3 nM	5 nM	19.1 nM
[2H]C([2H])([2H])Oc1cc(C(=O)Nc2cc3c(cc2Oc2cc(C)cc(C)c2)C(=O)N[C@@H](CC(=O)N2CCC(F)(F)CC2)C(=O)N3)c(Cl)c(OC([2H])([2H])[2H])c1OC([2H])([2H])[2H] [Compound 10, (S)-2-chloro-N-[3-[2-(4,4-difluoropiperidin-1-yl)-2-oxoethyl]-7-(3,5-dimethylphenoxy)-2,5-dioxo-2,3,4,5-tetrahydro-1H-benzo[e][1,4]diazepin-8-yl]-3,4,5-tris(trideuteromethoxy)benzamide]	10.2 µL/min/mg	1.13 h	37 nM	< 5 nM	< 5 nM	34.7 nM	10.7 nM	< 5 nM	6.4 nM	< 5 nM	35.4 nM
[2H]C([2H])([2H])Oc1cc(C(=O)Nc2cc3c(cc2Oc2cc(C)cc(C)c2)C(=O)N[C@@H](CC(=O)N(C)OC)C(=O)N3)c(Br)c(OC([2H])([2H])[2H])c1OC([2H])([2H])[2H] [Compound 30]	4.3 µL/min/mg	2.68 h	8.6 nM	< 5 nM	1.6 nM	7.8 nM	11.6 nM	< 5 nM	< 5 nM	< 5 nM	4.9 nM
